Data as given in patent publication US11077141B2, “Anti-tumor T cell immunity induced by high dose radiation” (The Board of Trustees of the Leland Stanford Junior …, priority 2012, dated 2021).

What was measured:
4T1 luc+ breast tumor = test: 4T1 breast tumor metastasis model: LTI (3 daily doses of 20 Gy), CY and cryopreserved autologous T cells; type: in vivo, BALB/c mice; conditions: 21 day 4T1 tumors; 3 daily doses of 20 Gy LTI, then single dose of CY
Procedure: Irradiation. […] For local tumor irradiation, unanesthetized mice were placed in lead jigs through which established tumors in the hind quarter were protruded for irradiation to an area of approximately 2 cm diameter. Irradiation was performed with a Phillips X-ray unit operated at 200 kV with the dose rate of 1.21 Gy/min (20 mÅ with added filtration of 0.5 mm copper, the distance from X-ray source to the target of 31 cm, and a half value layer of 1.3 mm copper).
Enriched cells were stained with anti-TCR-allophycocyanin (APC) and anti-CD4 or anti-CD8-fluorescein isothiocyanate (FITC) mAbs to check for purity, and preparations were uniformly at least 95% pure.
FACS Aria (Becton Dickinson, Mountain View, Calif.) was used for analysis with FlowJo software (TreeStar, Ashland, Oreg.). After sorting cells were checked by FACS reanalysis and determined to be >99% pure. Collected T cells were cryopreserved with 10% DMSO and frozen in liquid nitrogen.
In vivo BLI imaging. In vivo BLI was performed according to the method of Edinger et al. Briefly, mice were injected intraperitoneally with luciferin (10 μg/g body weight). Ten minutes later, mice were imaged using an IVIS100 charge-coupled device imaging system (Xenogen) for 5 minutes. Imaging data were analyzed and quantified with Living Image software (Xenogen).

CT26 tumors = test: Survival of CT26 tumor-bearing RAG-2-/- mice given 30 Gy LTI with or without CY and T cells; type: in vivo, BALB/c RAG2-/- mice; conditions: 30 Gy LTI at day 21
Procedure: Animals. Wild-type male BALB/c (H-2^d) mice, and male BALB/c RAG2^−/− mice, were purchased from Jackson Laboratories (Bar Harbor, Me.). Mice were 5-8 weeks old.
Irradiation. Total body irradiation was performed with a Philips X-ray unit (200 kV, 10 mA; Philips Electronic Instruments Inc., Rahway, N.J.) at a rate of 84 cGy/min with a 0.5 mm Cu filter. For local tumor irradiation, unanesthetized mice were placed in lead jigs through which established tumors in the hind quarter were protruded for irradiation to an area of approximately 2 cm diameter. Irradiation was performed with a Phillips X-ray unit operated at 200 kV with the dose rate of 1.21 Gy/min (20 mÅ with added filtration of 0.5 mm copper, the distance from X-ray source to the target of 31 cm, and a half value layer of 1.3 mm copper).
Cell preparation, splenectomy, and collection of T cells for autologous transplantation. Single cell suspensions of bone marrow and spleen were prepared according to previously described procedures. […]
FACS Aria (Becton Dickinson, Mountain View, Calif.) was used for analysis with FlowJo software (TreeStar, Ashland, Oreg.). After sorting cells were checked by FACS reanalysis and determined to be >99% pure. […]

CT26 luc+ tumor cells = test: Bioluminescence imaging of luciferase transduced CT26 tumors in RAG2-/- mice given LTI and CY with or without T cells; design: species or system BALB/c RAG2-/- mice; conditions: mouse, in vivo
Text: Cell lines. The CT26 cell line (an N-nitro-N-methylurethane-induced BALB/c murine colon carcinoma) was purchased from ATCC (Manassas, Va.). The 4T1 cell line (spontaneously arising) was also obtained from ATCC. The 4T1-LUC/GFP and CT26-LUC/GFP cell lines were lentiviraly transduced. The lentiviral vector pHR-IG was made by Dr. Yoshitaka Akagi. The GFP-firefly luciferase fusion (GLF) gene was subcloned from pJW.GFP-yLuc (kindly provided by Dr. M. H. Bachmann) into pHR2 to generate pHR2-GLF. Lentiviral particles expressing GLF were prepared as described before. […]. WT 4T1 and CT26 cells were seeded in a 6 well plate at 0.25×10^6 cells/well and incubated overnight in a 37° C. incubator. Titrated virus was then used to transduce the cell lines in the presence of protamine sulfate (10 μg/ml) to enhance transduction efficiency. Stable lentiviral transductants were then sorted 4 times for GFP fluorescence (100% purity) using a FACS DIVA cell sorter. Sorted cells were expanded and screened for bioluminescence using an Xenogen IVIS spectrum (Caliper Life Sciences; Hopkinton, Mass.), as well as GFP. Cell lines were maintained in RPMI-1640 complete medium supplemented with 10% fetal calf serum, L-glutamine, 2 mercaptoethanol, streptomycin and penicillin.
In vivo BLI imaging. In vivo BLI was performed according to the method of Edinger et al. Briefly, mice were injected intraperitoneally with luciferin ([…]). Ten minutes later, mice were imaged using an IVIS100 charge-coupled device imaging system (Xenogen) for 5 minutes. Imaging data were analyzed and quantified with Living Image software (Xenogen).

## O=P1(N(CCCl)CCCl)NCCCO1 (stereo not shown) [CY, cyclophosphamide]
4T1 luc+ breast tumor
  mice died by day 84: 6 of 8
  mice relapsed at day 98: 1
  tumor growth: progression of tumor growth was slowed
CT26 tumors
  survival (none of the mice survived beyond): ≤ 80 days
CT26 luc+ tumor cells
  day by which all of the mice died: ≤ 107
  death or survival of mice by day 35: 2 of 5
  tumor signal / tumor growth by BLI: continued tumor growth
